In PubChem BioAssay (NCI) one finds TGI and GI50 data, which are given here for 8 compounds.

Several values for one entry are separate records, joined by “and”; a condition that tells them apart may be missing. Equal values may be shown once.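 Each compound was tested at five concentrations against cells in 96-well plates for 48 hours. GI50: concentration for 50% inhibition of growth. TGI denotes the concentration required for complete inhibition of growth.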

Some test systems named below: SF-268 CNS; OVCAR-4 ovarian; OVCAR-8 ovarian; CCRF-CEM leukemia; SF-295 CNS; COLO 205 colon; HL-60(TB) leukemia; HOP-62 NSCLC; SR leukemia; NCI-H460 lung.
What all share (experiment): growth of human tumour cells (NCI), 48 h

Regarding `CCOC(=O)C(C[Si](C)(C)C)P(=O)(OCC)OCC` (configuration not stated), the TGI with SF-268 CNS, with OVCAR-4 ovarian, in the assay on OVCAR-8 ovarian, in the assay with CCRF-CEM leukemia, in the assay on SF-295 CNS and with COLO 205 colon was over 100 µM throughout. Also, the TGI with HL-60(TB) leukemia, with HOP-62 NSCLC, in the assay with SR leukemia and in the assay on NCI-H460 lung was over 100 µM each time.
With `COc1ccc(/C=C2\N=C3SC=C(N)N3C2=O)cc1`, the GI50 is 1.82 µM in the assay on SF-268 CNS; 0.485 µM with OVCAR-4 ovarian; 1.44 µM with OVCAR-8 ovarian; 0.4 µM in the assay with CCRF-CEM leukemia; 0.642 µM in the assay on SF-295 CNS; 1.13 µM in the assay on COLO 205 colon. Further, the GI50 is 1.12 µM in the assay on HL-60(TB) leukemia, 2.23 µM in the assay on HOP-62 NSCLC, 1.02 µM in the assay on SR leukemia and 0.582 µM in the assay with NCI-H460 lung. Also, the TGI in the assay with SF-268 CNS was 7.29 µM; in the assay with OVCAR-4 ovarian, 11 µM; in the assay on OVCAR-8 ovarian, 10.4 µM; in the assay with CCRF-CEM leukemia, 4.33 µM; in the assay with SF-295 CNS it was 14.2 µM; in the assay on COLO 205 colon, 4.23 µM. In addition, the TGI in the assay on HL-60(TB) leukemia worked out at 4.6 µM; with HOP-62 NSCLC it was 15.7 µM; with SR leukemia, 4.85 µM; in the assay with NCI-H460 lung, 14 µM.
Regarding `O=[N+]([O-])c1ccc2c(N=Nc3c(O)ccc4ccccc34)c(O)cc(S(=O)(=O)O)c2c1`, the GI50 with SF-268 CNS is 23.9 µM; with OVCAR-8 ovarian it was 31.3 µM; in the assay with CCRF-CEM leukemia, 19.8 µM; in the assay on SF-295 CNS, 29.5 µM; with COLO 205 colon it was 53.4 µM; in the assay on HL-60(TB) leukemia, 7.58 µM. Also, the GI50 in the assay on HOP-62 NSCLC was 17.1 µM. Further, the TGI is 50 µM and > 100 µM with SF-268 CNS; 50 µM in the assay on OVCAR-4 ovarian; 50 µM and > 100 µM with OVCAR-8 ovarian; 50 µM and > 100 µM in the assay on CCRF-CEM leukemia; 50 µM and > 100 µM in the assay on SF-295 CNS; 50 µM and > 100 µM in the assay with COLO 205 colon. Besides, the TGI in the assay with HL-60(TB) leukemia is 14.9 µM and 58.6 µM; in the assay on HOP-62 NSCLC, 50 µM and > 100 µM; in the assay with SR leukemia, over 100 µM; with NCI-H460 lung, over 100 µM.
As for `COc1ccc2c(c1)OC13Oc4cc(OC)ccc4C=C1CCCC3=C2`, the GI50 with SF-268 CNS is over 100 µM; in the assay on OVCAR-4 ovarian, over 100 µM; in the assay on OVCAR-8 ovarian, over 100 µM; with CCRF-CEM leukemia, 5.88 µM; in the assay on SF-295 CNS it was over 100 µM; in the assay on COLO 205 colon, over 100 µM. Further, the GI50 in the assay on HL-60(TB) leukemia was over 100 µM; in the assay on HOP-62 NSCLC, over 100 µM; in the assay with SR leukemia it was 4.89 µM; with NCI-H460 lung, over 100 µM. In addition, the TGI with SF-268 CNS, in the assay with OVCAR-4 ovarian, in the assay on OVCAR-8 ovarian, with CCRF-CEM leukemia, in the assay on SF-295 CNS and in the assay with COLO 205 colon was over 100 µM in each case. For the same compound, the TGI in the assay with HL-60(TB) leukemia, with HOP-62 NSCLC, in the assay with SR leukemia and in the assay on NCI-H460 lung was over 100 µM in each case.
Take `Oc1c(CN2CCCC2)cc(COCc2ccccc2)c2cccnc12`: the GI50 is 1.99 µM in the assay with SF-268 CNS; 0.903 µM with OVCAR-4 ovarian; 2.53 µM in the assay on OVCAR-8 ovarian; 1.43 µM in the assay with CCRF-CEM leukemia; 2.86 µM in the assay with SF-295 CNS; 10.4 µM in the assay with COLO 205 colon. The GI50 is 2.52 µM in the assay on HL-60(TB) leukemia, 1.65 µM with HOP-62 NSCLC, 1.83 µM in the assay with SR leukemia and 0.774 µM with NCI-H460 lung. In addition, the TGI with SF-268 CNS is 18.5 µM; in the assay on OVCAR-4 ovarian, 13.6 µM; with OVCAR-8 ovarian, 12 µM; with CCRF-CEM leukemia it was 15.4 µM; in the assay with SF-295 CNS, 13.7 µM; in the assay with COLO 205 colon, 26.6 µM. For the same compound, the TGI in the assay on HL-60(TB) leukemia was found to be 8.95 µM; in the assay with HOP-62 NSCLC it was 9.5 µM; in the assay with SR leukemia it was 16.9 µM; in the assay on NCI-H460 lung, 11.8 µM.
`CC#CC(=O)N1CCC[C@H]1c1nc(-c2ccc(C(=O)Nc3ccccn3)cc2)c2c(N)nccn12`: the GI50 was 52.7 µM in the assay with SF-268 CNS; 58 µM in the assay with OVCAR-4 ovarian; over 80.4 µM in the assay with OVCAR-8 ovarian; over 82.1 µM in the assay on CCRF-CEM leukemia; over 86.1 µM with SF-295 CNS; 85.4 µM in the assay on COLO 205 colon. Further, the GI50 with HL-60(TB) leukemia is over 100 µM; in the assay on HOP-62 NSCLC, over 100 µM; in the assay on SR leukemia, 43.8 µM; with NCI-H460 lung, 89.5 µM. In addition, the TGI in the assay on SF-268 CNS, with OVCAR-4 ovarian, in the assay on OVCAR-8 ovarian, with CCRF-CEM leukemia, with SF-295 CNS and with COLO 205 colon was over 100 µM throughout. Further, the TGI in the assay with HL-60(TB) leukemia, with HOP-62 NSCLC, with SR leukemia and with NCI-H460 lung was over 100 µM throughout.
With `COc1cc(Br)c(CC2=NCCc3cc(OC)c(OC)cc32)cc1OC`, the TGI in the assay with SF-268 CNS, in the assay on OVCAR-4 ovarian, with OVCAR-8 ovarian, in the assay with CCRF-CEM leukemia, in the assay with SF-295 CNS and in the assay on COLO 205 colon was over 100 µM each time. Further, the TGI in the assay with HL-60(TB) leukemia is 38 µM; in the assay with HOP-62 NSCLC, over 100 µM; with SR leukemia, over 100 µM; in the assay on NCI-H460 lung it was over 100 µM.
Consider `CCS/C(Nc1ccccc1)=C(\C#N)C(=O)Nc1ccc(OC)cc1`, for which the GI50 with SF-268 CNS is 6.8 µM; with OVCAR-4 ovarian, 7.61 µM; in the assay with OVCAR-8 ovarian, 4.37 µM; in the assay with CCRF-CEM leukemia, 1.83 µM; in the assay on SF-295 CNS it was 3.06 µM; in the assay on COLO 205 colon, 3.06 µM. The GI50 in the assay on HL-60(TB) leukemia is 2.87 µM; in the assay with HOP-62 NSCLC, 5.62 µM; in the assay with SR leukemia it was 1.54 µM; with NCI-H460 lung, 3.14 µM. The TGI was over 100 µM in the assay with SF-268 CNS; over 100 µM with OVCAR-4 ovarian; over 100 µM in the assay on OVCAR-8 ovarian; over 100 µM in the assay with CCRF-CEM leukemia; over 100 µM with SF-295 CNS; 11.2 µM in the assay with COLO 205 colon. Besides, the TGI with HL-60(TB) leukemia was over 100 µM; with HOP-62 NSCLC it was over 100 µM; in the assay with SR leukemia, over 100 µM; in the assay on NCI-H460 lung it was 34.2 µM.
